# Several values for one entry are separate records, joined by “and”; a condition that tells them apart may be missing. Identical values can stand only once. Counter-ions that a name gives are not always drawn.
# Experiments:
# [1] = system: Uptake of Phosphorus from the Intestine; assay: In vivo co-dosing in chow (urine P out / P consumed); settings: Rattus norvegicus, feed or water, rats, compound in chow, read-out: Mean % inhibition Urine Pout/P consumed; for inhibition in vivo at 50 mg/kg/day: mean drug dose 50 mg/kg/day; for inhibition in vivo at 100 mg/kg/day: mean drug dose 100 mg/kg/day
# How it was run: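 Male 7-week-old rats were fed a synthetic diet (0.6% P, 0.6% Ca) for 4 days, then housed in metabolic cages with compound in chow at 1.3 mg/g (nominal 100 mg/kg/day). Urinary P was measured by ion chromatography over 24–96 h and related to dietary P consumed. Percentage inhibition was calculated against no-drug controls.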
# [2] = Fecal recovery of orally administered compounds; type: in vivo, Sprague-Dawley rats; settings: Structure (I) examples, Table 16; rat, oral gavage, feces collected until 48 hr after dosing
# How it was run: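 After oral dosing, feces collected in metabolic cages up to 48 h, lyophilized and ground. Duplicate weighed portions per animal extracted with organic solvent under non-compound-optimized conditions, so recovery may be a minimal estimate.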
# rat NaP2b (SLC34A2) = biological target: T1, rat NaP2b (SLC34A2) (Rattus norvegicus, UniProt Q9JJ09); assay: Inhibition of NaP2b-mediated Pi (33P) uptake in transfected HEK293 cells, rat NaP2b; type: cell-based; settings: 33P Pi uptake, 0.1 mM phosphate, value given as pIC50 range
# T1 construct: host or cells: HEK293
# T1 sequence (Q9JJ09 1-695): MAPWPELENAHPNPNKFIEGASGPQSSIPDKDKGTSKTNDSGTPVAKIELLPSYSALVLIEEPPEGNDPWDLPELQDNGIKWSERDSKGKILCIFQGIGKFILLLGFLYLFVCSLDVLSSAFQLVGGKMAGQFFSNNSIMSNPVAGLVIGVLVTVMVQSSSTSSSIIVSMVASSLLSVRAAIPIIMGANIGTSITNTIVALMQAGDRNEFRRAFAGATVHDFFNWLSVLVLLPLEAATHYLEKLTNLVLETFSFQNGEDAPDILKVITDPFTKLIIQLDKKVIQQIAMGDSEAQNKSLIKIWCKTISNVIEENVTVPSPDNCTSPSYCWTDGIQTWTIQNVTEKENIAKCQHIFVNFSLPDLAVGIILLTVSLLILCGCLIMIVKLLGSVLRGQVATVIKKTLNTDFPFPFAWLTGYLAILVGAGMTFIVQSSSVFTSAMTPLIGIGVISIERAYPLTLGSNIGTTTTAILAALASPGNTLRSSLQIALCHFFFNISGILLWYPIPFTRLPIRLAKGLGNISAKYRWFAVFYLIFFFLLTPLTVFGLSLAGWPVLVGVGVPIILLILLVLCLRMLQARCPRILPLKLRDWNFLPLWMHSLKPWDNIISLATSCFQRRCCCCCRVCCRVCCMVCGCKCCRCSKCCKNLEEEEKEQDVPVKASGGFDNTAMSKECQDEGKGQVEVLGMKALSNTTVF
# How it was run: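 The cells transiently expressed NaP2b after Lipofectamine transfection. Each compound was run in duplicate over twelve concentrations, 0.1 nM–30 uM.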
# [3] = Stability of compounds in simulated gastric fluid (SGF); type: in vitro ADME; settings: simulated gastric fluid (3 mg/mL pepsin), incubation time 6 hr, relative to t=0
# How it was run: (§1)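 Compounds at […] were incubated 3 or 6 hr in USP simulated gastric fluid with 3 mg/mL pepsin or simulated intestinal fluid with 3 mg/mL pancreatin. Remaining compound was quantified by HPLC-UV or HPLC-MS peak area % and reported as percent of the t=0 level in the same medium.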
# [4] = Stability of compounds in simulated intestinal fluid (SIF); type: in vitro ADME; settings: simulated intestinal fluid (3 mg/mL pancreatin), incubation time 6 hr, relative to t=0
# How it was run: as §1
Structure (SMILES),% recovered in feces [2],IC50 (rat NaP2b (SLC34A2)),"% remaining, SGF [3]","% remaining, SIF [4]",inhibition in vivo at 50 mg/kg/day [1],inhibition in vivo at 110 mg/kg/day ([1]; mean drug dose 110 mg/kg/day),inhibition in vivo at 100 mg/kg/day [1],inhibition in vivo at 90 mg/kg/day ([1]; mean drug dose 90 mg/kg/day)
"CCN(CC)c1ccc(NC(=O)c2cccc(C(=O)N(C)CCN(CCOC)CCOCCOCCOCCOCCOCCOCCOC)c2)c(-c2cc(C(=O)NCc3cccc(C(F)(F)F)c3)ccn2)c1 [Example 335, N^1-(4-(Diethylamino)-2-(4-(3-(trifluoromethyl)benzylcarbamoyl)pyridin-2-yl)phenyl)-N^3-(23-(2-methoxyethyl)-2,5,8,11,14,17,20-heptaoxa-23-azapentacosan-25-yl)-N^3-methylisophthalamide, trifluoroacetate]",>80%,1000 to 7940 nM,>80%,>80%,–,–,≤ 10%,–
"CCCN(CCC)c1ccc(NC(=O)c2cccc(COCCOCCOCCOCCOCCOCCOCCOCCOC)c2)c(-c2cc(C(=O)NCc3cccc(C(F)(F)F)c3)ccn2)c1 [Example 200, 2-(2-(3-(2,5,8,11,14,17,20,23,26-nonaoxaheptacosyl)benzamido)-5-(dipropylamino)phenyl)-N-(3-(trifluoromethyl)benzyl)isonicotinamide]",20-80%,1000 to 7940 nM,>80%,>80%,–,–,10 to 30%,–
"CCN(CC)c1ccc(NC(=O)c2cccc(CCCOCCOCCOCCOCCOCCOCCC(=O)O)c2)c(-c2cc(C(=O)NCc3cccc(C(F)(F)F)c3)ccn2)c1 [Example 299, 22-(3-(4-(diethylamino)-2-(4-(3-(trifluoromethyl)benzylcarbamoyl)pyridin-2-yl)phenylcarbamoyl)phenyl)-4,7,10,13,16,19-hexaoxadocosan-1-oic acid]",20-80%,1000 to 7940 nM,–,–,10 to 30%,–,–,–
"CCN(CC)c1ccc(NC(=O)c2cccc(CCCOCCOCCOCCOCCNS(=O)(=O)c3ccc(C(=O)N(CCOC)CCOCCOCCOCCOCCOCCOCCOC)cc3)c2)c(-c2cc(C(=O)NCc3cccc(C(F)(F)F)c3)ccn2)c1 [Example 272, 2-(2-(3-(1-(4-(2,5,8,11,14,17,20-heptaoxadocosan-22-yl(2-methoxyethyl)carbamoyl)phenylsulfonamido)-3,6,9,12-tetraoxapentadecan-15-yl)benzamido)-5-(diethylamino)phenyl)-N-(3-(trifluoromethyl)benzyl)isonicotinamide]",>80%,1000 to 7940 nM,–,–,≤ 10%,–,–,–
"O=C(O)c1cccc(SCc2cccc(C(=O)Nc3ccc(N4CCCCC4)cc3-c3cc(C(=O)NCc4cccc(C(F)(F)F)c4)ccn3)c2)c1 [Example 8.1, 3-(3-(4-(piperidin-1-yl)-2-(4-(3-(trifluoromethyl)benzylcarbamoyl)pyridin-2-yl)phenylcarbamoyl)benzylthio)benzoic acid]",<20%,10000 to 31600 nM and < 1000 nM,60-80%,>80%,–,–,–,–
O=C(NCc1cccc(C(F)(F)F)c1)c1ccnc(-c2cc(N3CCCCC3)ccc2NC(=O)c2cccc(CSc3ccc(C(=O)O)c(Br)c3)c2)c1 [Example 8.21],>80%,1000 to 7940 nM,>80%,>80%,–,–,–,–
"CN(CCN1CCOCC1)C(=O)c1cccc(C(=O)Nc2ccc(N3CCCCC3)cc2-c2cc(C(=O)NCc3cccc(C(F)(F)F)c3)ccn2)c1 [Example 80, N1-Methyl-N1-(2-morpholinoethyl)-N3-(4-(piperidin-1-yl)-2-(4-((3-(trifluoromethyl)benzyl)carbamoyl)pyridin-2-yl)phenyl)isophthalamide]",20-80%,1000 to 7940 nM,–,–,–,–,–,–

# Further lines, with some results ahead:
% recovered in feces [2],IC50 (rat NaP2b (SLC34A2)),"% remaining, SGF [3]","% remaining, SIF [4]",Structure (SMILES),inhibition in vivo at 50 mg/kg/day [1],inhibition in vivo at 110 mg/kg/day ([1]; mean drug dose 110 mg/kg/day),inhibition in vivo at 100 mg/kg/day [1],inhibition in vivo at 90 mg/kg/day ([1]; mean drug dose 90 mg/kg/day)
20-80%,1000 to 7940 nM,–,–,"CCN(CC)c1ccc(NC(=O)c2cccc(CCCOCCOCCOCCOCCOCCC(=O)O)c2)c(-c2cc(C(=O)NCc3cccc(C(F)(F)F)c3)ccn2)c1 [Example 300, 19-(3-(4-(diethylamino)-2-(4-(3-(trifluoromethyl)benzylcarbamoyl)pyridin-2-yl)phenylcarbamoyl)phenyl)-4,7,10,13,16-pentaoxanonadecan-1-oic acid]",≤ 10%,–,–,–
<20%,1000 to 7940 nM,>80%,40-60%,CN(CCOCCOCCOCCC(=O)O)C(=O)Cc1cccc(SCc2cccc(C(=O)Nc3ccc(N4CCCCC4)cc3-c3cc(C(=O)NCc4cccc(C(F)(F)F)c4)ccn3)c2)c1 [Example 138],–,–,–,–
>80%,1000 to 7940 nM,–,–,"CCN(CC)c1ccc(NC(=O)c2cccc(CCCOCCOCCOCCOCCOCCOCCOCCOCCOCCC(=O)O)c2)c(-c2cc(C(=O)NCc3cccc(C(F)(F)F)c3)ccn2)c1 [Example 298, 31-(3-(4-(diethylamino)-2-(4-(3-(trifluoromethyl)benzylcarbamoyl)pyridin-2-yl)phenylcarbamoyl)phenyl)-4,7,10,13,16,19,22,25,28-nonaoxahentriacontan-1-oic acid]",10 to 30%,–,–,–
–,1000 to 7940 nM,–,–,"CCN(CC)c1ccc(NC(=O)c2cccc(C(=O)N(C)CCOCCOCCOCCC(=O)O)c2)c(-c2cc(C(=O)NCc3cccc(C(F)(F)F)c3)ccn2)c1 [Example 188, 1-(3-((4-(diethylamino)-2-(4-((3-(trifluoromethyl)benzyl)carbamoyl)pyridin-2-yl)phenyl)carbamoyl)phenyl)-2-methyl-1-oxo-5,8,11-trioxa-2-azatetradecan-14-oic acid]",–,10 to 30%,–,–
–,< 1000 nM,>80%,>80%,"CCN(CC)c1ccc(NC(=O)c2cccc(CSc3cccc(CC(=O)N(C)CCOCCOCCOCCC(=O)O)c3)c2)c(-c2cc(C(=O)NCc3cccc(C(F)(F)F)c3)ccn2)c1 [Example 144, 3-(2-(2-(2-(2-(3-(3-(4-(diethylamino)-2-(4-(3-(trifluoromethyl)benzylcarbamoyl)pyridin-2-yl)phenylcarbamoyl)benzylthio)phenyl)-N-methylacetamido)ethoxy)ethoxy)ethoxy)propanoic acid]",–,–,≤ 10%,–
–,< 1000 nM,>80%,>80%,"O=C(O)CCOCCOCCOCCOCCSCc1cccc(C(=O)Nc2ccc(N3CCCCC3)cc2-c2cc(C(=O)N[C@H]3CCCc4ccccc43)ccn2)c1 [Example 142, 1-(3-{[4-(piperidin-1-yl)-2-(4-{[(1S)-1,2,3,4-tetrahydronaphthalen-1-yl]carbamoyl}pyridin-2-yl)phenyl]carbamoyl}phenyl)-5,8,11,14-tetraoxa-2-thiaheptadecan-17-oic acid]",–,–,≤ 10%,–
–,< 1000 nM,>80%,>80%,"O=C(O)CCOCCOCCOCCOCCCc1cccc(C(=O)Nc2ccc(N3CCCCC3)cc2-c2cc(C(=O)N[C@H]3CCCc4ccccc43)ccn2)c1 [Example 252, 3-(2-(2-(2-(3-(3-((2-(4-(((S)-1,2,3,4-tetrahydronaphthalen-1-yl)carbamoyl)pyridin-2-yl)-4-(piperidin-1-yl)phenyl)carbamoyl)phenyl)propoxy)ethoxy)ethoxy)ethoxy)propanoic acid]",–,–,–,10 to 30%

# Reference: US20140023611A1 (priority 2010, published 2014)
